Series [1] relates to HeLa (cervical cancer) cells. Put plainly: Cytotoxicity assay (7-AAD viability, flow cytometry), HeLa. The series is classed as cell-based, human. The settings on record: Homo sapiens, HeLa, mean ± SE, at least three experiments in duplicate; viable cells. The protocol:
(§1) Cells (Jurkat, K562, U937, HeLa, HEK293 and normal Fibroblasts) were purchased from Russian Cell Culture Collection (Institute of Cytology of the Russian Academy of Sciences, Saint Petersburg, Russia) and cultured according to standard mammalian tissue culture protocols and sterile technique. Human cell lines HEK293 and HeLa were obtained from the HPA Culture Collections (Salisbury, UK). All cell lines used in the study were tested and shown to be free of mycoplasma and viral contamination.
(§2) HEK293, HeLa cell lines and fibroblasts were cultured as monolayers and maintained in Dulbecco’s modified Eagle’s medium (DMEM, Gibco BRL, Waltham, MA, USA) supplemented with 10% foetal bovine serum and 1% penicillin-streptomycin solution at 37 °C in a humidified incubator under a 5% CO2 atmosphere.
(§3) Cells were maintained in RPMI 1640 (Jurkat, K562, U937) (Gibco, Thermo Fisher Scientific, Waltham, MA, USA) supplemented with 4 mM glutamine, 10% FBS (Sigma, Burlington, MA, USA) and 100 units/mL penicillin-streptomycin (Sigma). All types of cells were grown in an atmosphere of 5% CO2 at 37 °C. The cells were subcultures at 2–3 days intervals. Adherent cells (HEK293, HeLa, fibroblasts) were suspended using trypsin/EDTA and counted after they have reached 80% confluency. Cells were then seeded in 24 well plates at 5 × 10^4 cells per well and incubated overnight. Jurkat, K562, U937 cells were subcultured at 2 day intervals with a seeding density of 1 × 10^5 cells per 24 well plates in RPMI with 10% FBS.
(§4) Viability (Live/dead) assessment was performed by staining cells with 7-AAD (7-Aminoactinomycin D) (Biolegend, San Diego, CA, USA). Cells were treated of test compounds with six different concentrations (1, 5, 10, 15, 30 and 60 μM). After treatment, cells were harvested, washed 1–2 times with phosphate-buffered saline (PBS) and centrifuged at 400× g for 5 min. Cell pellets were resuspended in 200 μL of flow cytometry staining buffer (PBS without Ca^2+ and Mg^2+, 2.5% FBS) and stained with 5 μL of 7-AAD staining solutionfor 15 min at room temperature in the dark. Samples were acquired on NovoCyteTM 2000 FlowCytometry System (ACEA, San Diego, CA, USA) equipped with 488 nm argon laser. Detection of 7-AAD emission was collected through a 675/30 nm filter in FL4 channel.
A general note: A flow cytometer gives signals particle by particle.

Series [2] has as its system HEK293 (embryonic kidney) cells. The series can be described thus: Cytotoxicity assay (7-AAD viability, flow cytometry), HEK293. The settings on record: Homo sapiens, HEK293, mean ± SE, at least three experiments in duplicate; viable cells. The series is classed as cell-based, human. The protocol: as §1, §2, §3, §4
For another series, the system named is normal human fibroblasts. Put plainly: Cytotoxicity assay (7-AAD viability, flow cytometry), normal fibroblasts. The series is classed as cell-based. The note with it: Homo sapiens, Fibroblast, mean ± SE, at least three experiments in duplicate. The protocol: as §1, §2, §3
as §4, with “Cells were treated of test compounds with six different concentrations (1, 5, 10, 15, 30 and 60 μM).” left out

In series [3] the test system is K562 (chronic myeloid leukemia) cells. Put plainly: Cytotoxicity assay (7-AAD viability, flow cytometry), K562. The format is cell-based, human. The note with it: Homo sapiens, K562, mean ± SE, at least three experiments in duplicate; viable cells; read-out: IC50 K562. The method, then:
as §1, §3, §4

The subject of series [4] is U937 (histiocytic lymphoma) cells. Put plainly: Cytotoxicity assay (7-AAD viability, flow cytometry), U937. The format is cell-based, human. The settings on record: Homo sapiens, U-937, mean ± SE, at least three experiments in duplicate; viable cells; read-out: IC50 U937. The protocol:
as §1, §3, §4

Series [5] has as its system Jurkat (T-lymphoblastic leukemia) cells. The series can be described thus: cells. The series is classed as cell-based. The settings on record: Homo sapiens, Jurkat, mean ± SE, at least three experiments in duplicate; viable cells; read-out: IC50 Jurkat. The method, then:
as §1, §3, §4

As to `CC(=O)O[C@H]1CC[C@@]2(C)C(CC[C@]3(C)C2CCC2C4C(C(C)C)CC[C@]4(C(=O)NCCCCN)CC[C@]23C)C1(C)C` (stereo partly drawn) [Compound 6, 3β-N-(4-Aminobuthyl)-3-O-acetyl-lupane-28-amide], the melting point (usually the temperature of the solid-liquid transition) was in the range of 104 to 106 °C. Also, in series [1], the IC50 (as a rule, the concentration at which inhibition is half-maximal) was determined as 7.1 ± 0.18 µM. In series [2], this compound registered an IC50 of 6.7 ± 0.21 µM. The compound also had a half-inhibitory concentration (IC50) in the series with normal human fibroblasts of 8.3 ± 0.29 µM. For the same compound, the IC50 in series [3] turned out to be 1.8 ± 0.12 µM. The half-maximal inhibitory concentration (IC50) in series [4] was determined as 4.5 ± 0.43 µM. Also, in series [5], the concentration for half-maximal inhibition (IC50) was found to be 7.7 ± 0.31 µM.

Take `CC(C)C1CC[C@]2(C(=O)NCCCCN)CC[C@]3(C)C(CCC4[C@@]5(C)CCC(=O)C(C)(C)C5CC[C@]43C)C12` (stereo partly shown) [Compound 4, N-(4-Aminobuthyl)-3-oxolupane-28-amide]: the melting point fell in the range of 170 to 172 °C. This compound also displayed an IC50 in series [1] of 2.8 ± 0.28 µM. Also, the midpoint of inhibition in series [2], the IC50, lay at 2.4 ± 0.35 µM. The compound further had an IC50 with normal human fibroblasts of 3.4 ± 0.19 µM. For the same compound, the IC50 in series [3] is 1.3 ± 0.49 µM. The IC50 in series [4] was determined as 1.7 ± 0.36 µM. For the same compound, in series [5], the IC50 amounted to 1.4 ± 0.41 µM.

In the case of `CC(=O)O[C@H]1CC[C@@]2(C)C(CC[C@]3(C)C2CCC2C4C(C(C)C)CC[C@]4(C(=O)NCCCN4CCN(CCCN)CC4)CC[C@]23C)C1(C)C` (stereo partly drawn) [Compound 8a, 3β-N-{[3-(3-Aminopropyl)piperazinyl]propyl}-3-O-acetyl-lupane-28-amide], the melting point lay within 119 to 121 °C. In series [1], the IC50 was determined as 6.1 ± 0.38 µM. For the same compound, half-maximal inhibition in series [2] (IC50) required 5.9 ± 0.14 µM. Also, the IC50 with normal human fibroblasts was 7.3 ± 0.43 µM. Moreover, the IC50 in series [3] stood at 3 ± 0.19 µM. The IC50 in series [4] was found to be 8.2 ± 0.13 µM. Further, in series [5], the IC50 came out at 4.5 ± 0.29 µM.

Regarding `CC(=O)O[C@H]1CC[C@@]2(C)C(CC[C@]3(C)C2CCC2C4C(C(C)C)CC[C@]4(C(=O)NCCN)CC[C@]23C)C1(C)C` (stereo partly drawn) [Compound 5, 3β-N-(2-Aminoethyl)-3-O-acetyl-lupane-28-amide], the melting point fell in the range of 120 to 122 °C. The compound also displayed a 50% inhibitory concentration (IC50) in series [1] of 3.9 ± 0.41 µM. Inhibition in series [2] was half-maximal at 4.8 ± 0.25 µM (IC50). In the series with normal human fibroblasts, the IC50 stood at 5.3 ± 0.27 µM. In addition, the concentration for half-maximal inhibition (IC50) in series [3] amounted to 2.8 ± 0.23 µM. For the same compound, the IC50 in series [4] is 1.9 ± 0.34 µM. In addition, the IC50 in series [5] stood at 2.3 ± 0.11 µM.

The values are drawn from PMC6278366, “Synthesis and Evaluation of Anticancer Activities of Novel C-28 Guanidine-Functionalized Triterpene Acid Derivatives” (Molecules, 2018).
